The assay has as its target T1, human GRIN1 (transcript variant NR1-3) and GRIN2D expressed in Xenopus oocytes (Homo sapiens, UniProt O15399).
T1 construct: GenScript (GRIN2D synthesis) SC115601; host or cells: Xenopus oocytes injected with cRNA (1 GluN1 : 2 GluN2)
Briefly: NR2D oocyte potentiation assay (two-electrode voltage clamp). The format is cell-based. The conditions noted are these: 10 uM test compound; glutamate and glycine 10 μM each; holding potential −40 mV. On the procedure:
NR2D Oocyte Potentiation Assay. Xenopus oocytes (Xenopus 1, Dexter, Mich.) were initially separated from the lobes of an ovary using surgical forceps; they were then defolliculated by constant agitation at room temperature in OR-2 buffer (82.5 mM NaCl; 2.5 mM KCl; 1 mM MgCl2; 5 mM HEPES; pH 7.4) containing 2 mg/ml collagenase Type 1 (Fisher Scientific, USA) for 1.5-2 hours. The cells were then gently aspirated with a Pasteur pipette to remove the follicular tissue; this was followed by washing three times with OR-2 to remove all traces of collagenase. The oocytes were then washed in ND-96 (96 mM NaCl, 2 mM KCl, 1.8 mM CaCl2, 1 mM MgCl2, 5 mM HEPES, 50 ng/L gentamycin, 100 units/ml penicillin and 100 μg/ml streptomycin; pH 7.6) three times and this was followed by incubation in ND-96 at room temperature with mild agitation for 15 minutes; subsequently they were stored for at least 2 hours at 16° C. before sorting and selection for injection. Oocytes selected for injection were incubated overnight in ND-96 at 16° C.
The human GRIN1 (transcript variant NR1-3 (Origene, SKU #: SC115601, Rockville, Md.) and GRIN2D (NCBI locus NM_000836, sequence optimized and synthesized by GenScript) were linearized and transcribed using the mMessage mMachine kit (Life Technologies) and promoters SP6 (for GluN1) and T7 (for GluN2D). cRNAs were mixed together at a ratio of 1 GluN1:2 GluN2. Each oocyte was injected with 50 nL of cRNA and stored in ND96 (96 mM NaCl, 2 mM KCl, 1.8 mM CaCl2, 1 mM MgCl2, 5 mM HEPES, 50 ng/L gentamycin, 100 units/ml penicillin and 100 μg/ml streptomycin; pH 7.6) at 16° C. for 72 h prior to recording.
Currents were recorded using a two-electrode voltage-clamp amplifier (Oocyte Clamp OC-725C; Warner Instrument Corp, Hamden, Conn.), and digitized using Digidata 1550A and pClamp (v. 10) software (Molecular Devices, Sunnyvale, Calif.). Electrodes were filled with 3 M KCl and had resistances that ranged from 0.2-1 MO. All measurements were made at a holding potential of −40 mV. Cells were continuously perfused with oocyte recording solution containing 90 mM NaCl, 1 mM KCl, 0.5 mM BaCl2, and 10 mM HEPES (Ph 7.4). Glutamate and Glycine (co-agonists) were applied at respective concentrations of 10 μM each. Co-agonists were applied until a plateau was reached, and test compounds were then added in the continued presence of co-agonists until a new plateau was reached. After the addition of the last test compound concentration, the oocyte was washed with oocyte recording buffer. Fraction of current remaining was calculated as [(current in presence of test compound−background current)/(co-agonist current−background current)] and IC50 values were computed using Prism 6.0 (Graphpad).
On the technique in general: Two-electrode voltage clamp is typically applied to oocytes expressing channels or transporters.
T1 sequence (O15399 28-1336, other chains not shown): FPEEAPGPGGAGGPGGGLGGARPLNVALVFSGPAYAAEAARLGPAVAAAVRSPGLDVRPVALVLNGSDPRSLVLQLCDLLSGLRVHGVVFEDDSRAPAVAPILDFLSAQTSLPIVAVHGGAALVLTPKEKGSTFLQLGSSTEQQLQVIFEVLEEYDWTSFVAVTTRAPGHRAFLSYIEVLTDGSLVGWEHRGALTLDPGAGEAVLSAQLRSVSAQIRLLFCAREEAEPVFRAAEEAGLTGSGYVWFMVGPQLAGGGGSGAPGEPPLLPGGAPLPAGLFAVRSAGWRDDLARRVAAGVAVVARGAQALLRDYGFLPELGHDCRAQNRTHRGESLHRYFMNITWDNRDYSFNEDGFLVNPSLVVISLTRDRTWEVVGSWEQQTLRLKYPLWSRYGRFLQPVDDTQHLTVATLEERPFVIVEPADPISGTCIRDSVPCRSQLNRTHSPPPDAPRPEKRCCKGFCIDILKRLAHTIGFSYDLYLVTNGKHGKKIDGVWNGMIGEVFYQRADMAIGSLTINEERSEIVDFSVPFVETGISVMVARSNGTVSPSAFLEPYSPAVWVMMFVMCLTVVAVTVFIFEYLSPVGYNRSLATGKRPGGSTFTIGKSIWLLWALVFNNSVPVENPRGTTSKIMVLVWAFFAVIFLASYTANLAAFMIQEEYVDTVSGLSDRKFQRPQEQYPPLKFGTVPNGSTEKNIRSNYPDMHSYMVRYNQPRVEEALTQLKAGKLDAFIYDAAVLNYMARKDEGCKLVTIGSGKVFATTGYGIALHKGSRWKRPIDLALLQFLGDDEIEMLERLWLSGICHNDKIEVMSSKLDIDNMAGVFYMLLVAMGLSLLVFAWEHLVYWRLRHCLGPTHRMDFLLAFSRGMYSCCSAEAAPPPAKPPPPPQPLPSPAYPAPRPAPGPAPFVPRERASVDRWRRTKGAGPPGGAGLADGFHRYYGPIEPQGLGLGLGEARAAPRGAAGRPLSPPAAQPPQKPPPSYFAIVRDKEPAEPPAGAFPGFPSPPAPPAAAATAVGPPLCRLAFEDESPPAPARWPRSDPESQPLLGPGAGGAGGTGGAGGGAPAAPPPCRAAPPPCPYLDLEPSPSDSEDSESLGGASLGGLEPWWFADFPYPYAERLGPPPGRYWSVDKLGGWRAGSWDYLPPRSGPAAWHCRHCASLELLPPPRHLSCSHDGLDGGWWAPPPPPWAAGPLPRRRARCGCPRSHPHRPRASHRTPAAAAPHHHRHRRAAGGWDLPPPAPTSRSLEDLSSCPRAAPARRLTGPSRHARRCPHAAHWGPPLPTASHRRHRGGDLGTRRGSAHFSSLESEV
Regarding `CC(C)(C)c1ccc(-c2nc3n(c(=O)c2C#N)CCS3)cn1` [Example 1, 7-(6-(tert-butyl)pyridin-3-yl)-5-oxo-2,3-dihydro-5H-thiazolo[3,2-a]pyrimidine-6-carbonitrile], the activation at 10 µM was 100 to 500%. Under `CC(C)(C)c1ccc(-c2nc3n(c(=O)c2C#N)CC=CCS3)cn1` [Example 2, 2-(6-(tert-butyl)pyridin-3-yl)-4-oxo-6,9-dihydro-4H-pyrimido[2,1-b][1,3]thiazepine-3-carbonitrile] stands 10 to 100%; under `CC(C)(C)c1ccc(-c2nc3sccn3c(=O)c2C#N)cn1` [Example 3, 7-(6-(tert-butyl)pyridin-3-yl)-5-oxo-5H-thiazolo[3,2-a]pyrimidine-6-carbonitrile], 100 to 500%; under `CC(C)(C)c1ncc(-c2nc3n(c(=O)c2C#N)CCS3)cn1` [Example 4, 7-(2-(tert-butyl)pyrimidin-5-yl)-5-oxo-2,3-dihydro-5H-thiazolo[3,2-a]pyrimidine-6-carbonitrile], 100 to 500%. Under `CC(C)(C)c1ccc(-c2nc3n(c(=O)c2C#N)CN(c2ccccc2)CS3)cc1` [Example 5, 8-(4-(tert-butyl)phenyl)-6-oxo-3-phenyl-3,4-dihydro-2H,6H-pyrimido[2,1-b][1,3,5]thiadiazine-7-carbonitrile] stands 10 to 100%; under `CN1CSc2nc(-c3ccc(C(C)(C)C)cc3)c(C#N)c(=O)n2C1` [Example 6, 8-(4-(tert-butyl)phenyl)-3-methyl-6-oxo-3,4-dihydro-2H,6H-pyrimido[2,1-b][1,3,5]thiadiazine-7-carbonitrile], 10 to 100%; under `CCN1CSc2nc(-c3ccc(C(C)(C)C)cc3)c(C#N)c(=O)n2C1` [Example 7, 8-(4-(tert-butyl)phenyl)-3-ethyl-6-oxo-3,4-dihydro-2H,6H-pyrimido[2,1-b][1,3,5]thiadiazine-7-carbonitrile], 10 to 100%.

As to `CN1CSc2nc(-c3ccc(C(C)(C)C)nc3)c(C#N)c(=O)n2C1` [Example 8, 8-(6-(tert-butyl)pyridin-3-yl)-3-methyl-6-oxo-3,4-dihydro-2H,6H-pyrimido[2,1-b][1,3,5]thiadiazine-7-carbonitrile], the activation at 10 µM is 10 to 100%. With `CCN1CSc2nc(-c3ccc(C(C)(C)C)nc3)c(C#N)c(=O)n2C1` [Example 9, 8-(6-(tert-butyl)pyridin-3-yl)-3-ethyl-6-oxo-3,4-dihydro-2H,6H-pyrimido[2,1-b][1,3,5]thiadiazine-7-carbonitrile], the activation at 10 µM lay within 10 to 100%. Under `CN1CSc2nc(-c3cnc(C(C)(C)C)nc3)c(C#N)c(=O)n2C1` [Example 10, 8-(2-(tert-butyl)pyrimidin-5-yl)-3-methyl-6-oxo-3,4-dihydro-2H,6H-pyrimido[2,1-b][1,3,5]thiadiazine-7-carbonitrile] stands 10 to 100%; under `CCN1CSc2nc(-c3cnc(C(C)(C)C)nc3)c(C#N)c(=O)n2C1` [Example 11, 8-(2-(tert-butyl)pyrimidin-5-yl)-3-ethyl-6-oxo-3,4-dihydro-2H,6H-pyrimido[2,1-b][1,3,5]thiadiazine-7-carbonitrile], 10 to 100%.

For the molecule `CC(C)(C)c1ccc(-c2cc(=O)n3ccccc3n2)cc1` [Example 12, 2-(4-(tert-butyl)phenyl)-4H-pyrido[1,2-a]pyrimidin-4-one], the activation at 10 µM lay within 10 to 100%. Under `CC(C)(C)c1ccc(-c2nc3n(c(=O)c2Br)CCCC3)cc1` [Example 13, 3-bromo-2-(4-(tert-butyl)phenyl)-6,7,8,9-tetrahydro-4H-pyrido[1,2-a]pyrimidin-4-one] stands under 10%. Under `C=Cc1c(-c2ccc(C(C)(C)C)cc2)nc2n(c1=O)CCCC2` [Example 14, 2-(4-(tert-butyl)phenyl)-3-vinyl-6,7,8,9-tetrahydro-4H-pyrido[1,2-a]pyrimidin-4-one] stands under 10%; under `CC(C)(C)c1ccc(-c2nc3n(c(=O)c2Br)CCCC3)cn1` [Example 15, 3-bromo-2-(6-tert-butylpyridin-3-yl)-4H,6H, 7H,8H,9H-pyrido[1,2-a] pyrimidin-4-one], 10 to 100%. Under `CC(C)(C)c1ccc(-c2nc3n(c(=O)c2C#N)CC(F)CS3)cn1` (stereo not drawn) [Example 16, 8-(6-(tert-butyl)pyridin-3-yl)-3-fluoro-6-oxo-3,4-dihydro-2H,6H-pyrimido[2,1-b][1,3]thiazine-7-carbonitrile] stands 10 to 100%. In the case of `CC(C)(C)c1ncc(-c2nc3n(c(=O)c2C#N)CC(F)CS3)cn1` (stereo not drawn) [Example 17, 8-(2-tert-butylpyrimidin-5-yl)-3-fluoro-6-oxo-2H,3H, 4H,6H-pyrimido [2,1-b][1,3] thiazine-7-carbonitrile], the activation at 10 µM was 100 to 500%.

As for `CC(C)(C)c1ccc(-c2nc3ccccn3c(=O)c2C#N)cc1` [Example 18, 2-(4-(tert-butyl)phenyl)-4-oxo-4H-pyrido[1,2-a]pyrimidine-3-carbonitrile], the activation at 10 µM was in the range of 100 to 500%. `CC(C)(C)c1ccc(-c2nc3ccccn3c(=O)c2C#N)cn1` [Example 19, 2-(6-(tert-butyl)pyridin-3-yl)-4-oxo-4H-pyrido[1,2-a]pyrimidine-3-carbonitrile]: the activation at 10 µM was 100 to 500%. Under `Cc1ccc2nc(-c3ccc(C(C)(C)C)nc3)c(C#N)c(=O)n2c1` [Example 21, 2-(6-(tert-butyl)pyridin-3-yl)-7-methyl-4-oxo-4H-pyrido[1,2-a]pyrimidine-3-carbonitrile] stands 100 to 500%; under `Cc1ccc2nc(-c3cnc(C(C)(C)C)nc3)c(C#N)c(=O)n2c1` [Example 22, 2-(2-(tert-butyl)pyrimidin-5-yl)-7-methyl-4-oxo-4H-pyrido[1,2-a]pyrimidine-3-carbonitrile], 100 to 500%. As for `CC(C)(C)c1ccc(-c2nc3n(c(=O)c2C#N)CCCC3)cc1` [Example 23, 2-(4-(tert-butyl)phenyl)-4-oxo-6,7,8,9-tetrahydro-4H-pyrido[1,2-a]pyrimidine-3-carbonitrile], the activation at 10 µM lay in the range of 10 to 100%. As to `CC(C)(C)c1ccc(-c2nc3n(c(=O)c2C#N)CC(F)(F)CS3)cn1` [Example 24, 8-(6-(tert-butyl)pyridin-3-yl)-3,3-difluoro-6-oxo-3,4-dihydro-2H,6H-pyrimido[2,1-b][1,3]thiazine-7-carbonitrile], the activation at 10 µM fell in the range of 100 to 500%.

As for `CSc1c(-c2ccc(C(C)(C)C)cc2)nc2n(c1=O)CCCC2` [Example 25, 2-(4-(tert-butyl)phenyl)-3-(methylthio)-6,7,8,9-tetrahydro-4H-pyrido[1,2-a]pyrimidin-4-one], the activation at 10 µM was under 10%.

On to `C[S+]([O-])c1c(-c2ccc(C(C)(C)C)cc2)nc2n(c1=O)CCCC2` (stereo not drawn) [Example 26, 2-(4-(tert-butyl)phenyl)-3-(methylsulfinyl)-6,7,8,9-tetrahydro-4H-pyrido[1,2-a]pyrimidin-4-one], for which the activation at 10 µM is under 10%. In the case of `CSc1c(-c2ccc(C(C)(C)C)nc2)nc2n(c1=O)CCCC2` [Example 27, 2-(6-tert-butylpyridin-3-yl)-3-(methylsulfanyl)-4H,6H,7H, 8H,9H-pyrido[1,2-a] pyrimidin-4-one], the activation at 10 µM is under 10%. With `CC(C)(C)c1ccc(-c2nc3n(c(=O)c2Br)CCCS3)cc1` [Example 28, 7-bromo-8-(4-(tert-butyl)phenyl)-3,4-dihydro-2H,6H-pyrimido[2,1-b][1,3]thiazin-6-one], the activation at 10 µM was 100 to 500%. Under `Cc1c(-c2ccc(C(C)(C)C)cc2)nc2n(c1=O)CCCS2` [Example 29, 8-(4-(tert-butyl)phenyl)-7-methyl-3,4-dihydro-2H,6H-pyrimido[2,1-b][1,3]thiazin-6-one] stands 10 to 100%; under `CC(C)(C)c1ccc(-c2nc3n(c(=O)c2Br)CCCS3)cn1` [Example 30, 7-bromo-8-(6-(tert-butyl)pyridin-3-yl)-3,4-dihydro-2H,6H-pyrimido[2,1-b][1,3]thiazin-6-one], 100 to 500%. Consider `Cc1c(-c2ccc(C(C)(C)C)nc2)nc2n(c1=O)CCCS2` [Example 31, 8-(6-(tert-butyl)pyridin-3-yl)-7-methyl-3,4-dihydro-2H,6H-pyrimido[2,1-b][1,3]thiazin-6-one], for which the activation at 10 µM lay within 10 to 100%.

These data come from patent US11807650B2, “NMDA receptor modulators and uses thereof” (Novartis AG, priority 2016, dated 2023).
